# Laboratory results published in patent US20130225633A1, “PHENYL HETEROCYCLOALKYL GLUCOCORTICOID RECEPTOR MODULATORS” (Corcept Therapeutics, Inc., priority 2012, published 2013).
# Experiments:
# [1] = biological target: T1, glucocorticoid receptors (GR) in SW1353/MMTV-5 cells (Homo sapiens, UniProt P04150); experiment: GR reporter gene assay using SW1353/MMTV-5 cells (Example 24); assay type: cell-based
# T1 construct: contains endogenous glucocorticoid receptors; endogenous in cells; host or cells: SW1353/MMTV-5 (human chondrosarcoma, stably transfected with pMAMneo-Luc reporter only)
# T1 sequence (P04150 1-777): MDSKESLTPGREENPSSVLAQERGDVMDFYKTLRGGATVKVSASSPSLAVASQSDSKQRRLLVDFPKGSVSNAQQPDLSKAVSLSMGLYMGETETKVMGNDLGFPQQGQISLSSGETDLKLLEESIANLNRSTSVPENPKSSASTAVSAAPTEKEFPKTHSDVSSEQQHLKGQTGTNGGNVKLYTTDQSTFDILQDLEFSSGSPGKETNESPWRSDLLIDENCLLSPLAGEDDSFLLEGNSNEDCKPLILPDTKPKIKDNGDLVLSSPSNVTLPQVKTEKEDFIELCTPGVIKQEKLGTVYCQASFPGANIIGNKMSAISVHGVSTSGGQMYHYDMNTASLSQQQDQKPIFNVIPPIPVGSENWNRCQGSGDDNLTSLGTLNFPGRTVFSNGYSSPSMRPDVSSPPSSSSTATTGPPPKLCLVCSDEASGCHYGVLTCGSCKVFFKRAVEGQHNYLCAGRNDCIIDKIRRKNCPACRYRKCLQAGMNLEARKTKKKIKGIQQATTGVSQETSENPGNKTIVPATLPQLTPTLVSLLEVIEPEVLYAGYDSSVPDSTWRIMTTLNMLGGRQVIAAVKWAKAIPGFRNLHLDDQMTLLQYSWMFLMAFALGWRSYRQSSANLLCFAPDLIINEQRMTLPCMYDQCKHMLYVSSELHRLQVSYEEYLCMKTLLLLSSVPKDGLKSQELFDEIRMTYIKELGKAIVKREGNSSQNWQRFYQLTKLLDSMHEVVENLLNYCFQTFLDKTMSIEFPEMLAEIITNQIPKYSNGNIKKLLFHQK
# Description: SW1353/MMTV-5 is an adherent human chondrosarcoma cell line that contains endogenous glucocorticoid receptors. It was transfected with a plasmid (pMAMneo-Luc) encoding firefly luciferase located behind a glucocorticoid-responsive element (GRE) derived from a viral promoter (long terminal repeat of mouse mammary tumor virus). A stable cell line SW1353/MMTV-5 was selected with geneticin, which was required to maintain this plasmid.
# SW1353/MMTV-5 cells were distributed in 96-well plates and incubated in medium (without geneticin) for 24 hrs.
# [2] = biological target: T2, human recombinant glucocorticoid receptor (Homo sapiens, UniProt P04150); experiment: Glucocorticoid receptor binding displacement assay with 3H-dexamethasone (Example 22); details: Examples 1-15: 3H-dexamethasone displacement assay of Example 22; read-out: GR binding Ki
# T2 construct: This GR was a full-length steroid hormone receptor; host or cells: baculovirus-infected insect cells
# T2 sequence (P04150 1-777): T1 sequence (P04150 1-777)
# Description: Binding protocol: Compounds were tested in a binding displacement assay using human recombinant glucocorticoid receptor with ^3H-dexamethasone as the ligand. The source of the receptor was recombinant baculovirus-infected insect cells. This GR was a full-length steroid hormone receptor likely to be associated with heat-shock and other endogenous proteins.
# For the IC50 determinations, test compounds were tested at 6 concentrations in duplicate. Test compounds were diluted from 10 mM stock in 100% DMSO. The tested solutions were prepared at 2× final assay concentration in 2% DMSO/assay buffer.
# All reagents and the assay plate were kept on ice during the addition of reagents. The reagents were added to wells of a v-bottomed polypropylene plate in the following order: 25 μl of 10 nM 3H-dexamethasone solution, 50 μl of TB/NSB/compound solution and 25 μl of 2 nM GR solution. After the additions, the incubation mixture was mixed and incubated for 2.5 hrs at 4° C.
# After 2.5 hrs incubation, unbound counts were removed with dextran coated charcoal (DCC) as follows: 15 μl of DCC solution (10% DCC in assay buffer) was added to all wells and mixed (total volume 115 μl). The plate was centrifuged at 4000 rpm for 10 minutes at 4° C. 75 μl of the supernatants was carefully pipetted into an optiplate. 150 μl of scintillation cocktail were added (Microscint-40, Perkin Elmer). The plate was vigorously shaken for approximately 10 minutes and counted on a Topcount.
# The IC50 values were converted to Ki (the inhibition constant) using the Cheng-Prusoff equation.
# Reagents: Assay buffer: 10 mM potassium phosphate buffer pH 7.6 containing 5 mM DTT, 10 mM sodium molybdate, 100 μM EDTA and 0.1% BSA.
SMILES,Ki [1],Ki [2]
"COC[C@]12Cc3cnn(-c4ccc(F)cc4)c3C=C1CCN(S(=O)(=O)c1cccc(N3CC[C@H](F)C3)c1)C2 [Example 5, (R)-1-(4-Fluorophenyl)-6-[3-((S)-3-fluoropyrrolidin-1-yl)-benzenesulfonyl]-4a-methoxymethyl-4,4a,5,6,7,8-hexahydro-1H-1,2,6-triaza-cyclopenta[b]naphthalene]",< 10 nM,0.5 to 1 nM
"O=S(=O)(c1ccc(N2CCCC2)cc1)N1CCC2=Cc3c(cnn3-c3ccc(F)cc3)C[C@]2(COCC2CC2)C1 [Example 8, (R)-4a-Cyclopropylmethoxymethyl-1-(4-fluoro-phenyl)-6-[4-(pyrrolidin-1-yl)-benzenesulfonyl]-4,4a,5,6,7,8-hexahydro-1H-1,2,6-triaza-cyclopenta[b]naphthalene]",< 10 nM,≥ 1 nM
"O=C(OCF)[C@]12Cc3cnn(-c4ccc(F)cc4)c3C=C1CCN(S(=O)(=O)c1cccc(N3CC[C@@H](F)C3)c1)C2 [Example 13, (R)-1-(4-Fluoro-phenyl)-6-[3-((R)-3-fluoro-pyrrolidin-1-yl)-benzenesulfonyl]-1,4,5,6,7,8-hexahydro-1,2,6-triaza-cyclopenta[b]naphthalene-4a-carboxylic acid fluoromethyl ester]",> 20 nM,0.5 to 1 nM
"COC[C@]12Cc3cnn(-c4ccc(F)cc4)c3C=C1CCN(S(=O)(=O)c1cccc(N3CCCC3)c1)C2 [Example 6, (R)-1-(4-Fluoro-phenyl)-4a-methoxymethyl-6-[3-(pyrrolidin-1-yl)-benzenesulfonyl)-4,4a,5,6,7,8-hexahydro-1H-1,2,6-triaza-cyclopenta[b]naphthalene]",10 to 20 nM,0.5 to 1 nM
"O=S(=O)(c1cccc(N2CC[C@@H](F)C2)c1)N1CCC2=Cc3c(cnn3-c3ccc(F)cc3)C[C@]2(COCC2CC2)C1 [Example 1, (R)-4a-Cyclopropylmethoxymethyl-1-(4-fluorophenyl)-6-[3-((R)-3-fluoropyrrolidin-1-yl)-benzenesulfonyl]-4,4a,5,6,7,8-hexahydro-1H-1,2,6-triaza-cyclopenta[b]naphthalene]",< 10 nM,≥ 1 nM
"COC(=O)[C@]12Cc3cnn(-c4ccc(F)cc4)c3C=C1CCN(S(=O)(=O)c1cccc(N3CC[C@@H](F)C3)c1)C2 [Example 12, (R)-1-(4-Fluoro-phenyl)-6-[3-((R)-3-fluoro-pyrrolidin-1-yl)-benzenesulfonyl]-1,4,5,6,7,8-hexahydro-1,2,6-triaza-cyclopenta[b]naphthalene-4a-carboxylic acid methyl ester]",> 20 nM,≥ 1 nM
"O=S(=O)(c1ccc(N2CC[C@@H](F)C2)cc1)N1CCC2=Cc3c(cnn3-c3ccc(F)cc3)C[C@]2(COCC2CC2)C1 [Example 7, (R)-4a-Cyclopropylmethoxymethyl-1-(4-fluoro-phenyl)-6-[4-((R)-3-fluoro-pyrrolidin-1-yl)-benzenesulfonyl]-4,4a,5,6,7,8-hexahydro-1H-1,2,6-triaza-cyclopenta[b]naphthalene]",< 10 nM,< 0.5 nM
"O=S(=O)(c1cccc(N2CC[C@H](F)C2)c1)N1CCC2=Cc3c(cnn3-c3ccc(F)cc3)C[C@]2(COCC2CC2)C1 [Example 2, (R)-4a-Cyclopropylmethoxymethyl-1-(4-fluorophenyl)-6-[3-((S)-3-fluoropyrrolidin-1-yl)-phenyl-3-sulfonyl]-4,4a,5,6,7,8-hexahydro-1H-1,2,6-triaza-cyclopenta[b]naphthalene]",< 10 nM,0.5 to 1 nM
"O=S(=O)(c1cccc(N2CCCC2)c1)N1CCC2=Cc3c(cnn3-c3ccc(F)cc3)C[C@]2(COCC2CC2)C1 [Example 3, (R)-4a-Cyclopropylmethoxymethyl-1-(4-fluorophenyl)-6-[3-(pyrrolidin-1-yl)-benzenesulfonyl]-4,4a,5,6,7,8-hexahydro-1H-1,2,6-triaza-cyclopenta[b]naphthalene]",< 10 nM,≥ 1 nM
"CCOC(=O)[C@]12Cc3cnn(-c4ccc(F)cc4)c3C=C1CCN(S(=O)(=O)c1cccc(N3CCCC3)c1)C2 [Example 14, (R)-1-(4-Fluoro-phenyl)-6-[3-(pyrrolidin-1-yl)-benzenesulfonyl]-1,4,5,6,7,8-hexahydro-1,2,6-triaza-cyclopenta[b]naphthalene-4a-carboxylic acid ethyl ester]",10 to 20 nM,0.5 to 1 nM
"COC[C@]12Cc3cnn(-c4ccc(F)cc4)c3C=C1CCN(S(=O)(=O)c1cccc(N3CC[C@@H](F)C3)c1)C2 [Example 4, (R)-1-(4-Fluorophenyl)-6-[3-((R)-3-fluoropyrrolidin-1-yl)-benzenesulfonyl]-4a-methoxymethyl-4,4a,5,6,7,8-hexahydro-1H-1,2,6-triaza-cyclopenta[b]naphthalene]",10 to 20 nM,≥ 1 nM
"CCOC(=O)[C@]12Cc3cnn(-c4ccc(F)cc4)c3C=C1CCN(S(=O)(=O)c1cccc(N3CC[C@@H](F)C3)c1)C2 [Example 11, (R)-1-(4-Fluoro-phenyl)-6-[3-((R)-3-fluoro-pyrrolidin-1-yl)-benzenesulfonyl]-1,4,5,6,7,8-hexahydro-1,2,6-triaza-cyclopenta[b]naphthalene-4a-carboxylic acid ethyl ester]",10 to 20 nM,0.5 to 1 nM
"COC[C@]12Cc3cnn(-c4ccc(F)cc4)c3C=C1CCN(S(=O)(=O)c1ccc(N3CC[C@@H](F)C3)cc1)C2 [Example 9, (R)-1-(4-Fluoro-phenyl)-6-[4-((R)-3-fluoro-pyrrolidin-1-yl)-benzenesulfonyl]-4a-methoxymethyl-4,4a,5,6,7,8-hexahydro-1H-1,2,6-triaza-cyclopenta[b]naphthalene]",10 to 20 nM,0.5 to 1 nM
"O=C(OCF)[C@]12Cc3cnn(-c4ccc(F)cc4)c3C=C1CCN(S(=O)(=O)c1cccc(N3CCCC3)c1)C2 [Example 15, (R)-1-(4-Fluoro-phenyl)-6-[3-(pyrrolidin-1-yl)-benzenesulfonyl]-1,4,5,6,7,8-hexahydro-1,2,6-triaza-cyclopenta[b]naphthalene-4a-carboxylic acid fluoromethyl ester]",> 20 nM,0.5 to 1 nM
"COC[C@]12Cc3cnn(-c4ccc(F)cc4)c3C=C1CCN(S(=O)(=O)c1ccc(N3CCCC3)cc1)C2 [Example 10, (R)-1-(4-Fluoro-phenyl)-6-[4-(pyrrolidin-1-yl)-benzenesulfonyl]-4a-methoxymethyl-4,4a,5,6,7,8-hexahydro-1H-1,2,6-triaza-cyclopenta[b]naphthalene]",> 20 nM,0.5 to 1 nM
